The values that follow come from patent publication US10327448B2, “Bacterium of Bacillus genus and uses thereof” (priority 2014, dated 2019).

Positions of bridges follow the written chain, without caps; N, C: chain ends. Non-standard residues stand in square brackets, D forms with d. Residues, ends and D or L forms follow the SMILES beside them. *: point of attachment. Ileψ(thiazoline)Cys = CC[C@H](C)[C@H](N)C1=N[C@H](C(=O)*)CS1; dOrn = NCCC[C@@H](N)C(=O)O

The subject of the assay is Bacillus subtilis ssp. shriramensis (MTCC-5674). The experiment in a line: Antibiotic sensitivity test (antibiotic discs on T3 agar). For Result: key: RES - Resistant; INT - Intermediate; SEN - Sensitive. The assay is classed as cell-based. The conditions noted are these: antibiotic disc on T3 agar, 30° C. for 24 hours; for Result: judged against Standards. As for the experimental part:
Different antibiotic discs were placed on the surface of the T3 agar plates labelled with the respective antibiotic. The plates were incubated at 30° C. for 24 hours.

`NCC[C@H](O)C(=O)N[C@@H]1C[C@H](N)[C@@H](O[C@H]2O[C@H](CN)[C@@H](O)[C@H](O)[C@H]2O)[C@H](O)[C@H]1O[C@H]1O[C@H](CO)[C@@H](O)[C@H](N)[C@H]1O` [Amikacin]: the Zone was found to be 15 mm; the “antibiotic sensitivity of the bacterium, in words” value (“antibiotic sensitivity” below) is on record as “intermediate resistance”; the Result result is on record as “INT”.

`CC1(C)S[C@@H]2[C@H](NC(=O)[C@H](N)c3ccc(O)cc3)C(=O)N2[C@H]1C(=O)O` [Amoxicillin]: the Zone was 0 mm; the “antibiotic sensitivity” value is listed as “resistant”; the Result result is “RES”.

For the compound `CC1(C)S[C@@H]2[C@H](NC(=O)[C@H](N)c3ccccc3)C(=O)N2[C@H]1C(=O)O` [Ampicillin], the Zone worked out at 0 mm; the “antibiotic sensitivity” value is “resistant”; the Result result was “RES”.

As to `CC[C@H]1OC(=O)[C@H](C)[C@@H](O[C@H]2C[C@@](C)(OC)[C@@H](O)[C@H](C)O2)[C@H](C)[C@@H](O[C@@H]2O[C@H](C)C[C@H](N(C)C)[C@H]2O)[C@](C)(O)C[C@@H](C)CN(C)[C@H](C)[C@@H](O)[C@]1(C)O` [Azithromycin], the Zone amounted to 10 mm; the “antibiotic sensitivity” value is “resistant”; the Result entry was “RES”.

`CC[C@H](C)[C@H](N)C1=N[C@H](C(=O)N[C@@H](CC(C)C)C(=O)N[C@H](CCC(=O)O)C(=O)N[C@H](C(=O)N[C@H]2CCCCNC(=O)[C@H](CC(N)=O)NC(=O)[C@@H](CC(=O)O)NC(=O)[C@H](Cc3cnc[nH]3)NC(=O)[C@@H](Cc3ccccc3)NC(=O)[C@H]([C@@H](C)CC)NC(=O)[C@@H](CCCN)NC2=O)[C@@H](C)CC)CS1` [Bacitracin] ({Ileψ(thiazoline)Cys}-L[dE]IK[dOrn]I[dF]H[dD]N; lactam 4-C): the Zone turned out to be 21 mm; the “antibiotic sensitivity” value is listed as “sensitive”; the Result result was “SEN”.

Consider `CC1(C)S[C@@H]2[C@H](NC(=O)C(C(=O)O)c3ccccc3)C(=O)N2[C@H]1C(=O)O` (stereo partly drawn) [Carbenicillin], for which the Zone was 15 mm; the “antibiotic sensitivity” value was “resistant”; the Result result is reported as “RES”.

As for `CO/N=C(\C(=O)N[C@@H]1C(=O)N2C(C(=O)O)=C(CSc3nc(=O)c(=O)[nH]n3C)CS[C@H]12)c1csc(N)n1` [Ceftriaxone], the Zone came to 28 mm; the “antibiotic sensitivity” value was “sensitive”; the Result entry is “SEN”.

Take `CC(=O)OCC1=C(C(=O)O)N2C(=O)[C@@H](NC(=O)Cc3cccs3)[C@H]2SC1` [Cephalothin]: the Zone was 40 mm; the “antibiotic sensitivity” value is “sensitive”; the Result entry is recorded as “SEN”.

For the compound `O=C(N[C@H](CO)[C@H](O)c1ccc([N+](=O)[O-])cc1)C(Cl)Cl` [Chloramphenicol], the Zone came out at 25 mm; the “antibiotic sensitivity” value was “sensitive”; the Result entry was “SEN”.

`CCC[C@@H]1C[C@@H](C(=O)N[C@@H]([C@H]2O[C@H](SC)[C@H](O)[C@@H](O)[C@H]2O)[C@H](C)Cl)N(C)C1` [Clindamycin] yielded a Zone of 10 mm.

With `CCN1CCN(c2cc3c(cc2F)c(=O)c(C(=O)O)cn3C2CC2)CC1` [Enrofloxacin], the Zone was 41 mm; the “antibiotic sensitivity” value is “resistant”; the Result result is “RES”.

As to `CC[C@H]1OC(=O)[C@H](C)[C@@H](O[C@H]2C[C@@](C)(OC)[C@@H](O)[C@H](C)O2)[C@H](C)[C@@H](O[C@@H]2O[C@H](C)C[C@H](N(C)C)[C@H]2O)[C@](C)(O)C[C@@H](C)C(=O)[C@H](C)[C@@H](O)[C@]1(C)O` [Erythromycin], the Zone was found to be 16 mm; the “antibiotic sensitivity” value is “intermediate resistance”; the Result entry is listed as “INT”.

In the case of `NC[C@H]1O[C@H](O[C@H]2[C@H](O)[C@@H](O[C@H]3O[C@H](CO)[C@@H](O)[C@H](N)[C@H]3O)[C@H](N)C[C@@H]2N)[C@H](O)[C@@H](O)[C@@H]1O` [Kanamycin], the Zone was 13 mm and the Result entry is on record as “RES”.

On to `CCC[C@@H]1C[C@@H](C(=O)N[C@@H]([C@H]2O[C@H](SC)[C@H](O)[C@@H](O)[C@H]2O)[C@@H](C)O)N(C)C1` [Lincomycin], for which the Zone turned out to be 12 mm; the “antibiotic sensitivity” value is given as “resistant”; the Result result is “RES”.

In the case of `CO[C@@H]1[C@@H](OC(N)=O)[C@@H](O)[C@H](Oc2ccc3c(O)c(NC(=O)c4ccc(O)c(CC=C(C)C)c4)c(=O)oc3c2C)OC1(C)C` [Novobiocin], the Zone is 24 mm; the “antibiotic sensitivity” value is given as “sensitive”; the Result result is “SEN”.

Consider `Cc1onc(-c2ccccc2)c1C(=O)N[C@@H]1C(=O)N2[C@@H]1SC(C)(C)[C@@H]2C(=O)O` [Oxacillin], for which the Zone was 11 mm; the “antibiotic sensitivity” value is reported as “intermediate resistance”; the Result result is listed as “INT”.

Consider `[H]/N=C(/N)N[C@H]1[C@H](O)[C@@H](O)[C@H](O[C@@H]2O[C@@H](C)[C@](O)(C=O)[C@H]2O[C@@H]2O[C@@H](CO)[C@H](O)[C@@H](O)[C@@H]2NC)[C@@H](N/C(N)=N\[H])[C@@H]1O` [Streptomycin], for which the Zone is 12 mm; the “antibiotic sensitivity” value is given as “intermediate resistance”; the Result entry was “INT”.

As for `Cc1noc(NS(=O)(=O)c2ccc(N)cc2)c1C` [Sulfisoxazole], the Zone amounted to 33 mm; the “antibiotic sensitivity” value is “sensitive”; the Result result is on record as “SEN”.

As for `NC[C@H]1O[C@H](O[C@H]2[C@H](O)[C@@H](O[C@H]3O[C@H](CO)[C@@H](O)[C@H](N)[C@H]3O)[C@H](N)C[C@@H]2N)[C@H](N)C[C@@H]1O` [Tobramycin], the Zone was determined as 15 mm; the “antibiotic sensitivity” value was “sensitive”; the Result result was “SEN”.

In the case of `CN[C@H](CC(C)C)C(=O)N[C@H]1C(=O)N[C@@H](CC(N)=O)C(=O)N[C@H]2C(=O)N[C@H]3C(=O)N[C@H](C(=O)N[C@H](C(=O)O)c4cc(O)cc(O)c4-c4cc3ccc4O)[C@H](O)c3ccc(c(Cl)c3)Oc3cc2cc(c3O[C@@H]2O[C@H](CO)[C@@H](O)[C@H](O)[C@H]2O[C@H]2C[C@](C)(N)[C@H](O)[C@H](C)O2)Oc2ccc(cc2Cl)[C@H]1O` [Vancomycin], the Zone was 20 mm; the “antibiotic sensitivity” value is given as “sensitive”; the Result result is “SEN”.

For the compound Gentamicin, the Zone was 20 mm; the “antibiotic sensitivity” value is listed as “sensitive”; the Result result is “SEN”.

Turning to Neomycin, the Zone came to 12 mm; the “antibiotic sensitivity” value was “resistant”; the Result entry is listed as “RES”.
